In US12630600B2 (MEDIMMUNE LIMITED, priority 2022, dated 2026):
Where two headings read alike, the source gives them in different places. Starred links: 1 amine or outer side, 2 acyl side, 3 side chain; linkers in the order of their positions; H or OH if unused. Non-standard residues stand in square brackets, D forms with d. Residues, ends and D or L forms follow the SMILES beside them. Groups on a side chain read outwards from the residue. *: point of attachment. C20 diacid = O=C(O)CCCCCCCCCCCCCCCCCCC(=O)*; C18 diacid = O=C(O)CCCCCCCCCCCCCCCCC(=O)*; γGlu = O=C(O)[C@H](CCC(=O)[*:2])N[*:1]; Stearoyl = CCCCCCCCCCCCCCCCCC(=O)*; Palmitoyl = CCCCCCCCCCCCCCCC(=O)*; αMeF = C[C@](N)(Cc1ccccc1)C(=O)O; PEG2 = NCCOCCOCCC(=O)O; AEEA = NCCOCCOCC(=O)O; Aib = CC(C)(N)C(=O)O

What was measured:
[1] = target: T1, human GLP-1 receptor (hGLP-1R) (Homo sapiens, UniProt P43220); assay: cAMP production (HTRF) in CHO cells expressing human GLP-1 receptor; format: cell-based; settings: for % Relative Potency Ratio: % GLP-1R activity relative to GLP-1 / % GlucR activity relative to glucagon
T1 construct: expressed in transfected cells; host or cells: CHO

[2] = target: T2, human glucagon receptor (hGCGR) (Homo sapiens, UniProt P47871); assay: cAMP production (HTRF) in CHO cells expressing human glucagon receptor; format: cell-based
T2 construct: expressed in transfected cells; host or cells: CHO
Method: Cells were re-suspended in assay buffer at a batch-dependent optimized concentration (typically hGLP-1R cells at 1×10^5 cells/mL, hGCGR cells at 2×10^5 cells/mL).
Cells were added to the assay plate using a multidrop dispenser and incubated at room temperature for 30 minutes before measuring the cAMP level using a cAMP dynamic 2 homogeneous time resolved Fluorescence (HTRF) kit (Cisbio Bioassays #62AM4PEJ) following the two-step protocol as per manufacturer's recommendations. In brief, anti-cAMP cryptate (donor fluorophore) and cAMP-d2 (acceptor fluorophore) were made up separately by diluting each 1 in 20 in conjugate and lysis buffer provided in the kit. Anti-cAMP cryptate was added to all wells of the assay plate, followed by cAMP-d2 added to all wells except non-specific binding (NSB) wells (to which conjugate and lysis buffer was added).
Data was transformed to % Delta F as described in the manufacturer's guidelines and analyzed by 4-parameter logistic fit to determine EC50 values.

[3] = Table 9, peptides modified at position 10, geometric mean, CHO cells, read-out: hGluc-R EC50
[4] = Table 6, modification at position 17, CHO cells expressing hGCGR, geometric mean, read-out: hGluc-R EC50

T2 sequence (P47871 26-477): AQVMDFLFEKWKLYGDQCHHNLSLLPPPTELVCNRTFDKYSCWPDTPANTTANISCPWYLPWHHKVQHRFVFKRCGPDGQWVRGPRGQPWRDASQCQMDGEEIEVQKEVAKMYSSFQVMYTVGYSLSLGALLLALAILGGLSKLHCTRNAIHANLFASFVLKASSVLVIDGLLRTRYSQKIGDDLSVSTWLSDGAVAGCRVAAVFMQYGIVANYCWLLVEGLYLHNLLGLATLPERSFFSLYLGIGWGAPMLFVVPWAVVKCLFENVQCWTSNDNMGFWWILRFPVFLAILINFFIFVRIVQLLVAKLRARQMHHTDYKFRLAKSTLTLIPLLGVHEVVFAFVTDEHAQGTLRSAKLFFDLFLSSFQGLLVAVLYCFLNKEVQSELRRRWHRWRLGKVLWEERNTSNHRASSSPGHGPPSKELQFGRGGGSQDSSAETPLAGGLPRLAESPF
T1 sequence (P43220 24-463): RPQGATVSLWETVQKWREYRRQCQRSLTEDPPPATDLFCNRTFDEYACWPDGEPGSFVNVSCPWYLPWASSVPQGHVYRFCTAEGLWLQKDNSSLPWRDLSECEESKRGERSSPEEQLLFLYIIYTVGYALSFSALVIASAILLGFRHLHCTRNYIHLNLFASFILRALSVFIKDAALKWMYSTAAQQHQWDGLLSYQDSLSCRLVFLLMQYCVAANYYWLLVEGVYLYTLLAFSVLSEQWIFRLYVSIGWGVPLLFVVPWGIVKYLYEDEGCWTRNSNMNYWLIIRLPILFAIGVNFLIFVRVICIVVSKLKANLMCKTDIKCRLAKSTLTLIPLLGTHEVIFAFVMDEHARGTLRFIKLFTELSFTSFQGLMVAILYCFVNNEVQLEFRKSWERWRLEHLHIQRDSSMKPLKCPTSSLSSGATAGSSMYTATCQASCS

What does the source list for CCCCCCCCCCCCCCCC(=O)N[C@@H](CCC(=O)NCCOCCOCCC(=O)NCCOCCOCCC(=O)NCCCC[C@H](NC(=O)[C@H](CC(=O)O)NC(=O)[C@H](CO)NC(=O)[C@@H](NC(=O)[C@](C)(Cc1ccccc1)NC(=O)[C@H](CO)NC(=O)CNC(=O)[C@H](CCC(N)=O)NC(=O)C(C)(C)NC(=O)[C@@H](N)Cc1c[nH]cn1)[C@@H](C)O)C(=O)N[C@@H](CO)C(=O)N[C@@H](CCCCN)C(=O)N[C@H](C(=O)N[C@@H](CC(C)C)C(=O)N[C@@H](CC(=O)O)C(=O)N[C@@H](CO)C(=O)N[C@@H](CCCNC(=N)N)C(=O)N[C@@H](C)C(=O)N[C@@H](C)C(=O)N[C@@H](CCC(N)=O)C(=O)N[C@@H](CC(=O)O)C(=O)N[C@@](C)(Cc1ccccc1)C(=O)N[C@H](C(=O)N[C@@H](CCC(=O)O)C(=O)N[C@@H](Cc1c[nH]c2ccccc12)C(=O)N[C@H](C(=O)N[C@@H](C)C(=O)N[C@@H](CC(N)=O)C(=O)N[C@H](C(N)=O)[C@@H](C)O)[C@@H](C)CC)C(C)C)[C@@H](C)CC)C(=O)O [Peptide 396] (H-H[Aib]QGS[αMeF]TSDK([PEG2-PEG2-γGlu-Palmitoyl])SKILDSRAAQD[αMeF]VEWIANT-NH2)?
% Relative Potency Ratio ([1]; Table 9): 40.2; EC50 [2, 3]: 11.8 pM

Which “% Relative Potency Ratio” value ([1]; Table 8) does the source give for CC[C@H](C)[C@H](NC(=O)[C@H](Cc1c[nH]c2ccccc12)NC(=O)[C@H](CCCCNC(=O)CC[C@H](NC(=O)CCCCCCCCCCCCCCCCC(=O)O)C(=O)O)NC(=O)[C@@H](NC(=O)[C@H](Cc1ccccc1)NC(=O)[C@H](CC(=O)O)NC(=O)[C@H](CCC(N)=O)NC(=O)[C@H](C)NC(=O)[C@H](C)NC(=O)[C@H](CCC(N)=O)NC(=O)[C@H](CO)NC(=O)[C@H](CC(=O)O)NC(=O)[C@H](CC(C)C)NC(=O)[C@](C)(Cc1ccccc1)NC(=O)[C@H](CCCCN)NC(=O)[C@H](CO)NC(=O)[C@@H](NC(=O)[C@H](CC(=O)O)NC(=O)[C@H](CO)NC(=O)[C@@H](NC(=O)[C@H](Cc1ccccc1)NC(=O)[C@@H](NC(=O)CNC(=O)[C@H](Cc1c[nH]cn1)NC(=O)C(C)(C)NC(=O)[C@@H](N)Cc1c[nH]cn1)[C@@H](C)O)[C@@H](C)O)C(C)C)C(C)C)C(=O)N[C@@H](C)C(=O)N[C@@H](CC(N)=O)C(=O)N[C@H](C(N)=O)[C@@H](C)O [Peptide 346] here?
The value was 0.1.

What about the EC50 ([1]; hGLP-1R EC50 (pM), Table 8, peptides modified at position 24, geometric mean, CHO cells, cAMP) of the same molecule?
The EC50 was 7320 pM.

What about the EC50 ([2]; hGluc-R EC50 (pM), Table 8, peptides modified at position 24, geometric mean, CHO cells) of the same molecule?
Its EC50 is 203 pM.

For CCCCCCCCCCCCCCCCCC(=O)N[C@@H](CCC(=O)N[C@@H](CCC(=O)NCCOCCOCCC(=O)NCCOCCOCCC(=O)NCCCC[C@H](NC(=O)[C@H](CO)NC(=O)[C@H](CC(=O)O)NC(=O)[C@H](CC(C)C)NC(=O)[C@](C)(Cc1ccccc1)NC(=O)[C@H](CCCCN)NC(=O)[C@H](CO)NC(=O)[C@@H](NC(=O)[C@H](CC(=O)O)NC(=O)[C@H](CO)NC(=O)[C@@H](NC(=O)[C@](C)(Cc1ccccc1)NC(=O)[C@H](CO)NC(=O)CNC(=O)[C@H](CCC(N)=O)NC(=O)[C@H](CO)NC(=O)[C@@H](N)Cc1c[nH]cn1)[C@@H](C)O)C(C)C)C(=O)N[C@@H](C)C(=O)N[C@@H](C)C(=O)N[C@@H](CCC(N)=O)C(=O)N[C@@H](CC(=O)O)C(=O)N[C@@](C)(Cc1ccccc1)C(=O)N[C@H](C(=O)N[C@@H](CCC(N)=O)C(=O)NC(C)(C)C(=O)N[C@H](C(=O)N[C@@H](C)C(=O)N[C@@H](CC(N)=O)C(=O)N[C@H](C(N)=O)[C@@H](C)O)[C@@H](C)CC)C(C)C)C(=O)O)C(=O)O [Peptide 82] (H-HSQGS[αMeF]TSDVSK[αMeF]LDSK([PEG2-PEG2-γGlu-γGlu-Stearoyl])AAQD[αMeF]VQ[Aib]IANT-NH2; N-terminus assumed), which EC50 [2, 4] is on record?
Its EC50 is 7.77 pM.

With CCCCCCCCCCCCCCCC(=O)N[C@@H](CCC(=O)NCCOCCOCCC(=O)NCCOCCOCCC(=O)NCCCC[C@H](NC(=O)[C@H](CC(=O)O)NC(=O)[C@H](CO)NC(=O)[C@@H](NC(=O)[C@H](Cc1ccccc1)NC(=O)[C@H](CO)NC(=O)CNC(=O)[C@H](CCC(N)=O)NC(=O)C(C)(C)NC(=O)[C@@H](N)Cc1c[nH]cn1)[C@@H](C)O)C(=O)N[C@@H](CO)C(=O)N[C@@H](CCCCN)C(=O)N[C@H](C(=O)N[C@@H](CC(C)C)C(=O)N[C@@H](CC(=O)O)C(=O)N[C@@H](CO)C(=O)N[C@@H](CCCNC(=N)N)C(=O)N[C@@H](C)C(=O)N[C@@H](C)C(=O)N[C@@H](CCC(N)=O)C(=O)N[C@@H](CC(=O)O)C(=O)N[C@@H](Cc1ccccc1)C(=O)N[C@H](C(=O)N[C@@H](CCC(=O)O)C(=O)N[C@@H](Cc1c[nH]c2ccccc12)C(=O)N[C@H](C(=O)N[C@@H](C)C(=O)N[C@@H](CC(N)=O)C(=O)N[C@H](C(N)=O)[C@@H](C)O)[C@@H](C)CC)C(C)C)[C@@H](C)CC)C(=O)O [Peptide 395] as the molecule, how does the EC50 [2, 3] read?
The EC50 was 9.55 pM.

Which EC50 [2, 4] does the source give for CC(C)C[C@H](NC(=O)[C@H](Cc1c[nH]c2ccccc12)NC(=O)[C@H](CCCNC(=N)N)NC(=O)[C@@H](NC(=O)[C@H](Cc1ccccc1)NC(=O)[C@H](CC(=O)O)NC(=O)[C@H](CCCNC(=N)N)NC(=O)[C@H](C)NC(=O)[C@H](CCCNC(=N)N)NC(=O)[C@H](CCCCNC(=O)CC[C@H](NC(=O)CC[C@H](NC(=O)COCCOCCNC(=O)COCCOCCNC(=O)CC[C@H](NC(=O)CC[C@H](NC(=O)CCCCCCCCCCCCCCCCC(=O)O)C(=O)O)C(=O)O)C(=O)O)C(=O)O)NC(=O)[C@H](CO)NC(=O)[C@H](CC(=O)O)NC(=O)[C@H](CC(C)C)NC(=O)[C@](C)(Cc1ccccc1)NC(=O)[C@H](CCCCN)NC(=O)[C@H](CO)NC(=O)[C@@H](NC(=O)[C@H](CC(=O)O)NC(=O)[C@H](CO)NC(=O)[C@@H](NC(=O)[C@H](Cc1ccccc1)NC(=O)[C@@H](NC(=O)CNC(=O)[C@H](CCC(N)=O)NC(=O)C(C)(C)NC(=O)[C@@H](N)Cc1c[nH]cn1)[C@@H](C)O)[C@@H](C)O)C(C)C)C(C)C)C(=O)N[C@@H](CC(C)C)C(=O)N[C@@H](CCC(=O)O)C(=O)NC(C)(C)C(=O)NCC(=O)O [Peptide 144] (H-H[Aib]QGTFTSDVSK[αMeF]LDSK([γGlu-γGlu-AEEA-AEEA-γGlu-γGlu-C18 diacid])RARDFVRWLLE[Aib]G-OH; N-terminus assumed) here?
Its EC50 is 702 pM.

How did the EC50 [2, 4] turn out when CC(C)C[C@H](NC(=O)[C@H](Cc1c[nH]c2ccccc12)NC(=O)[C@H](CCCNC(=N)N)NC(=O)[C@@H](NC(=O)[C@H](Cc1ccccc1)NC(=O)[C@H](CC(=O)O)NC(=O)[C@H](CCCNC(=N)N)NC(=O)[C@H](C)NC(=O)[C@H](CCCNC(=N)N)NC(=O)[C@H](CCCCNC(=O)CC[C@H](NC(=O)CC[C@H](NC(=O)COCCOCCNC(=O)COCCOCCNC(=O)CC[C@H](NC(=O)CC[C@H](NC(=O)CCCCCCCCCCCCCCCCC(=O)O)C(=O)O)C(=O)O)C(=O)O)C(=O)O)NC(=O)[C@H](CO)NC(=O)[C@H](CC(=O)O)NC(=O)[C@H](CC(C)C)NC(=O)[C@](C)(Cc1ccccc1)NC(=O)[C@H](CCCCN)NC(=O)[C@H](CO)NC(=O)[C@@H](NC(=O)[C@H](CC(=O)O)NC(=O)[C@H](CO)NC(=O)[C@@H](NC(=O)[C@H](Cc1ccccc1)NC(=O)[C@@H](NC(=O)CNC(=O)[C@H](CCC(N)=O)NC(=O)C(C)(C)NC(=O)[C@@H](N)Cc1c[nH]cn1)[C@@H](C)O)[C@@H](C)O)C(C)C)C(C)C)C(=O)N[C@@H](CC(C)C)C(=O)N[C@@H](CCC(=O)O)C(=O)NC(C)(C)C(=O)NCC(=O)O [Peptide 136] (H-H[Aib]QGTFTSDVSK[αMeF]LDSK([γGlu-γGlu-AEEA-AEEA-γGlu-γGlu-C18 diacid])RARDFVRWLLE[Aib]G-OH; N-terminus assumed) was run?
The EC50 was 509 pM.

With CC[C@H](C)[C@H](NC(=O)[C@H](Cc1c[nH]c2ccccc12)NC(=O)[C@H](CCCCNC(=O)COCCOCCNC(=O)COCCOCCNC(=O)CC[C@H](NC(=O)CC[C@H](NC(=O)CCCCCCCCCCCCCCCCCCC(=O)O)C(=O)O)C(=O)O)NC(=O)[C@@H](NC(=O)[C@H](Cc1ccccc1)NC(=O)[C@H](CC(=O)O)NC(=O)[C@H](CCC(N)=O)NC(=O)[C@H](C)NC(=O)[C@H](C)NC(=O)[C@H](CCCNC(=N)N)NC(=O)[C@H](CO)NC(=O)[C@H](CC(=O)O)NC(=O)[C@H](CC(C)C)NC(=O)[C@](C)(Cc1ccccc1)NC(=O)[C@H](CCCCN)NC(=O)[C@H](CO)NC(=O)[C@@H](NC(=O)[C@H](CC(=O)O)NC(=O)[C@H](CO)NC(=O)[C@@H](NC(=O)[C@](C)(Cc1ccccc1)NC(=O)[C@H](CO)NC(=O)CNC(=O)[C@H](Cc1c[nH]cn1)NC(=O)C(C)(C)NC(=O)[C@@H](N)Cc1c[nH]cn1)[C@@H](C)O)C(C)C)C(C)C)C(=O)N[C@@H](C)C(=O)N[C@@H](CC(N)=O)C(=O)N[C@H](C(N)=O)[C@@H](C)O [Peptide 377] (H-H[Aib]HGS[αMeF]TSDVSK[αMeF]LDSRAAQDFVK([AEEA-AEEA-γGlu-γGlu-C20 diacid])WIANT-NH2) as the molecule, how does the “% Relative Potency Ratio” value ([1]; Table 8) read?
The value was 2.5.
